# Measured values: US8865901B2, “Gain-of-function Bcl-2 inhibitors” (priority 2009, dated 2014)
# Several values for one entry are separate records, joined by “and”; a condition that tells them apart may be missing. Equal entries are not always repeated. Where two headings read alike, the source gives them in different places.
# Key:
# [1] = tested on: TAMH cells overexpressing Bcl-xL (TAMH-Bcl-xL, Tabx2s); experiment: Cytotoxicity / apoptosis induction in TAMH cells overexpressing Bcl-xL; format: cell-based; details: for EC50: TAMH cells overexpressing Bcl-xL (Tabx2s), read-out: 2S EC50; for IC50: read-out: IC50 TAMH Bcl-XL; for Fold Select. (Neo/Bcl-xL): Table 13
# Method: (§1) To examine the sensitivity of cells over-expressing Bcl-xL to various mitochondrial inhibitors and apoptosis inducers, cell lines over-expressing Bcl-xL were prepared and tested according to Hockenberry et al. U.S. Pat. No. 7,241,804, hereby incorporated by reference in its entirety. Competitive binding of compounds with fluorescent antimycin A3, and competitive binding of compounds with BH3 peptide and Bcl-2. Competitive binding of compounds with BH-3 peptide were also measured using Bcl-xL as previously described. Id.
# (§2) Cell lines were grown in RPMI 1640 medium (Gibco, Grand Island, N.Y.) supplemented with 5% fetal bovine serum (Hyclone, Logan, Utah). Also shown is the ratio of TAMH cells expressing Bcl-xL to those expressing A142L (WT:142L). The assay measures the potency of various compounds with respect to inducing apoptosis in these cells.
# (§3) The compounds described in Example 2 were tested for their ability to inhibit Bcl-2 gain-of-function in TAMH cells, TAMH cells overexpressing […] (TAMH-Bcl-xL), TAMH cells transfected with Neo vector (Neo), TAMH cells over expressing a variant of Bcl-xL (A142L) using the methods of Example 1. 3-6.
# (§4) The effects of the compounds described in Example 8 on TAMH cells, TAMH cells overexpressing Bcl-xL (TAMH-Bcl-xL), TAMH cells transfected with Neo vector (Neo), TAMH cells over expressing a variant of Bcl-xL (A142L) is shown in Table 8
# (§5) The effects of the compounds described in Example 10 on TAMH cells, TAMH cells overexpressing Bcl-xL (TAMH-Bcl-xL), TAMH cells transfected with Neo vector (Neo), TAMH cells over expressing a variant of Bcl-xL (A142L) is shown in the following Table 10
# [2] = tested on: TAMH cells transfected with Neo vector (Neo); experiment: Cytotoxicity / apoptosis induction in TAMH cells transfected with Neo vector; format: cell-based; details: for EC50: TAMH Neo cells, read-out: Neo EC50; for IC50: Table 10, read-out: IC50 TAMH Neo
# Method: as §1, §2, §3, §4, §5
Compound,Fold Select. (Neo/Bcl-XL) ([1]; Table 10),IC50 ([1]; Table 10),IC50 [2],other results
COc1ccc(C)cc1Cc1cc(C)cc(Cc2cc(C)ccc2O)c1OC [Compound 0036],–,–,–,EC50 ([1]; Table 5): 1.9 µM; EC50 ([2]; Table 5): 17.5 µM
Cc1cc(Cc2cc(Br)ccc2O)c(O)c(Cc2cc(Br)ccc2O)c1 [Compound 0039],–,–,–,EC50 ([1]; Table 5): 0.7 µM; EC50 ([2]; Table 5): 2.9 µM
O=[N+]([O-])c1ccc(S(=O)(=O)c2ccccc2)c2nonc12 [Compound 0219],–,–,–,EC50 ([1]; Table 6): 7.6 µM
O=C(/N=C/c1cc(Br)cc(Br)c1O)c1ccc(C(F)(F)F)cn1 [Compound 0298],–,–,–,EC50 ([1]; Table 3): 2.3 µM; EC50 ([2]; Table 3): 13 µM
Oc1ccc(Br)cc1Sc1cc(Br)ccc1O [Compound 1049],2.2,1.9 µM,4.2 µM,–
O=S(=O)(c1cc(Br)ccc1O)c1cc(Br)ccc1O [Compound 1050],2.8,3.8 µM,10.5 µM,–
CC(C)(C)c1ccc(O)c(Sc2cc(C(C)(C)C)ccc2O)c1 [Compound 2855],–,–,–,Fold Select. (Neo/Bcl-XL) ([1]; Table 11): 0
Oc1ccc(Cl)cc1Sc1cc(Cl)ccc1O [Compound 4112],2.3,2 µM,4.7 µM,–
CC(=O)Nc1ccc(Sc2ccc(NC(C)=O)cc2O)c(O)c1 [Compound 4581],–,–,–,Fold Select. (Neo/Bcl-XL) ([1]; Table 11): 0
O=C(c1cc(Br)ccc1O)c1cc(Br)ccc1O [Compound 4631],1.7,8.5 µM,14 µM,–
Cc1c(Cl)cc(C(C)(C)C)c(O)c1Cc1c(C)c(Cl)cc(C(C)(C)C)c1O [Compound 5857],2.8,4.5 µM,12.5 µM,–
Oc1ccc2ccccc2c1Cc1c(O)ccc2ccccc12 [Compound 5992],–,3 µM and 4.4 µM,12.2 µM and 8 µM,–
Cc1cc(Cc2cc(C)c(N)cc2N)c(N)cc1N [Compound 7215],–,–,–,Fold Select. (Neo/Bcl-XL) ([1]; Table 11): 0
Cc1cc(Cc2cc(C)cc(C(C)(C)C)c2O)c(O)c(C(C)(C)C)c1 [Compound 7781],2.8,1.6 µM,4.5 µM,–
CCc1cc(Cc2cc(CC)cc(C(C)(C)C)c2O)c(O)c(C(C)(C)C)c1 [Compound 7782],1.7,2.1 µM,3.5 µM,–
Oc1c(Cl)cc(Cl)cc1Sc1cc(Cl)cc(Cl)c1O [Compound 9872],3.3,2.3 µM,7.5 µM,–
Cc1c(Cl)c(C)c(Sc2c(C)c(Cl)c(C)c(Br)c2O)c(O)c1Br [Compound 9874],2.8,0.7 µM,2 µM,–
Cc1cc(O)c(Sc2c(O)cc(C)c(Cl)c2C)c(C)c1Cl [Compound 9875],6.3,0.9 µM,5.7 µM,–
CN(C)Cc1cc(Cl)cc(Cc2cc(Cl)cc(CN(C)C)c2O)c1O.Cl [Compound 39242],–,–,–,Fold Select. (Neo/Bcl-XL) ([1]; Table 11): 0
Cc1cc(C)c(O)c(Cc2cccc(Cc3cc(C)cc(C)c3O)c2O)c1 [Compound 48168],–,–,–,Fold Select. (Neo/Bcl-xL) [1]: 0
O=C(O)c1cc(Cl)cc(Cc2cc(Cl)cc(C(=O)O)c2O)c1O [Compound 48684],–,–,–,Fold Select. (Neo/Bcl-XL) ([1]; Table 11): 0
CC(=O)c1cc(Cc2cc(C)cc(C)c2O)c(O)c(Cc2cc(C)cc(C)c2O)c1 [Compound 48705],–,–,–,Fold Select. (Neo/Bcl-xL) [1]: 0
Cc1cc(Cc2cc(Cc3cc(C)cc(C(C)(C)C)c3O)c(C)cc2C)c(O)c(C(C)(C)C)c1 [Compound 57725],–,–,–,Fold Select. (Neo/Bcl-xL) [1]: −0
Oc1ccc(Sc2ccc(O)cc2O)c(O)c1 [Compound 59828],–,–,–,Fold Select. (Neo/Bcl-XL) ([1]; Table 11): 0
Cc1cc(Cc2cc(C)cc(C(C)(C)C)c2O)c(O)c(Cc2cc(C)cc(C(C)(C)C)c2O)c1 [Compound 62914],–,–,–,Fold Select. (Neo/Bcl-xL) [1]: > 20 and 22.7
Cc1cc(Sc2cc(C)cc(C(C)(C)C)c2O)c(O)c(C(C)(C)C)c1 [Compound 67488],6.8,14.6 µM,–,–
COc1ccccc1Cc1ccccc1OC [Compound 78834],–,–,–,Fold Select. (Neo/Bcl-XL) ([1]; Table 11): 0
COc1cc(C)ccc1C(=O)c1ccc(C)cc1OC [Compound 143532],–,–,–,Fold Select. (Neo/Bcl-XL) ([1]; Table 11): 0
Cc1cc(O)c(O)c(Oc2cc(C)cc(O)c2O)c1 [Compound 330927],5,19.8 µM,–,–
